# Laboratory results from US4492693A, “Benzothienylglycyl cephalosporin derivatives” (priority 1983, dated 1985).
# Read-outs that look alike come from different tables or passages of the source.
# Key:
# Bacteroides fragilis [1] = assay: Susceptibility of Anaerobic Bacteroides Isolates by the Agar-Dilution Method (Table III); format: cell-based; settings: 24 h
# Text: (§1) A typical and preferred compound provided by this invention is 7-(3-benzothienyl)glycylamido-3-methyl-3-cephem-4-carboxylic acid, the compound illustrated in Example 9. The antibacterial activity of this compound has been determined in standard in vitro agar dilution assays against a variety of gram positive and gram negative microorganism. The following Tables present typical minimum inhibitory concentrations (MIC's) in μg/ml for several compounds of the invention when evaluated against the indicated microorganisms. MIC's for several known compounds are also presented for comparison.
# (§2) Susceptibility of Anaerobic Bacteroides Isolates by the
# (§3) Agar-Dilution Method MIC (μg/ml) readings 24 hrs. after incubation
# [2] = tested on: Bacteroides thetaiotaomicron; assay: as above; format: cell-based; settings: 24 h
# Text: as §1, §2, §3
# Bacteroides corrodens = assay: as above; format: cell-based; settings: Eikenella corrodens; strain 1874; readings 24 hrs. after incubation
# Text: as §1, §2, §3
# Strep. D = assay: Agar Dilution MIC (Table I); format: cell-based; settings: for MIC: read-out: Agar Dilution MIC
# Text: as §1
# Agar Dilution MIC (μg/ml)
# Haemophilus influenzae = assay: Expanded H. influenzae Spectrum MIC (Table IV); format: cell-based
# [3] = tested on: β-lactamase, organism 1082E; assay: Stability to β-lactamase (Table V); format: biochemical; settings: lower numbers mean greater stability
# Bacteroides fragilis [4] = assay: Expanded anaerobic Spectrum MIC (Table IV); format: cell-based
# [5] = tested on: β-lactamase, organism TEM; format: biochemical; settings: lower numbers mean greater stability
# Strep. A = assay: Agar Dilution MIC (Table I); format: cell-based; settings: read-out: Agar Dilution MIC
# bacteria = assay: Antibacterial activity (general statements); format: cell-based; settings: anaerobic bacteria and Haemophilus influenzae, more strains
# Klebsiella = assay: Agar Dilution MIC (Table I); format: cell-based; settings: for MIC: Klebsiella, read-out: Agar Dilution MIC
# [6] = tested on: β-lactamase, organism 1313G; assay: Stability to β-lactamase (Table V); format: biochemical; settings: lower numbers mean greater stability
# H. influ. = assay: Agar Dilution MIC (Table I); format: cell-based; settings: read-out: Agar Dilution MIC
# Strep. PN = assay: Agar Dilution MIC (Table I); format: cell-based; settings: strain PARK
# H. influenzae = assay: Expanded Spectrum MIC (Table II); format: cell-based; settings: Haemophilus influenzae
# Text: as §1
# (§4) Expanded Spectrum MIC (μg/ml)
# Staph. aureus [7] = assay: Expanded Spectrum MIC (Table II); format: cell-based; settings: Staphylococcus aureus
# Text: as §1, §4
# [8] = tested on: β-lactamase, organism 265A; assay: Stability to β-lactamase (Table V); format: biochemical; settings: lower numbers mean greater stability
# E. coli = assay: Agar Dilution MIC (Table I); format: cell-based; settings: Escherichia coli
# [9] = tested on: β-lactamase, organism PS185; assay: Stability to β-lactamase (Table V); format: biochemical; settings: lower numbers mean greater stability
# Staph. epi [10] = assay: Agar Dilution MIC (Table I); format: cell-based; settings: read-out: Agar Dilution MIC
# Staph. epi [11] = assay: Expanded Spectrum MIC (Table II); format: cell-based
# Text: as §1, §4
# Staph. aureus [12] = assay: Agar Dilution MIC (Table I); format: cell-based; settings: Staphylococcus aureus
# [13] = strain 9, readings 24 hrs. after incubation
# [14] = strain 103, readings 24 hrs. after incubation
# [15] = strain 104, readings 24 hrs. after incubation
# [16] = strain 106, readings 24 hrs. after incubation
# [17] = strain 107, readings 24 hrs. after incubation
# [18] = strain 108, readings 24 hrs. after incubation
# [19] = strain 110, readings 24 hrs. after incubation
# [20] = strain 111, readings 24 hrs. after incubation
# [21] = strain 1877, readings 24 hrs. after incubation
# [22] = strain 1438, readings 24 hrs. after incubation
# [23] = strain 1900A, readings 24 hrs. after incubation
# [24] = mean over strains, read-out: MIC mean
smiles,measurement,setting,value
"CC1=C(C(=O)O)N2C(=O)C(NC(=O)C(N)c3csc4ccccc34)C2SC1 (centres unmarked) [Ex. 9, 7-(3-Benzothienyl)glycylamido-3-methyl-3-cephem-4-carboxylic acid]",MIC,Bacteroides fragilis [1]; [13],4 µg/mL
same,MIC,Bacteroides fragilis [1]; [14],32 µg/mL
same,MIC,Bacteroides fragilis [1]; [15],4 µg/mL
same,MIC,Bacteroides fragilis [1]; [16],4 µg/mL
same,MIC,Bacteroides fragilis [1]; [17],8 µg/mL
same,MIC,Bacteroides fragilis [1]; [18],4 µg/mL
same,MIC,Bacteroides fragilis [1]; [19],8 µg/mL
same,MIC,Bacteroides fragilis [1]; [20],64 µg/mL
same,MIC,Bacteroides fragilis [1]; [21],8 µg/mL
same,MIC,[2]; [22],4 µg/mL
same,MIC,[2]; [23],16 µg/mL
same,MIC,Bacteroides corrodens,32 µg/mL
same,MIC,Strep. D; strain 2041,64 µg/mL
same,MIC,Strep. D; strain X66,128 µg/mL
same,MIC,"Haemophilus influenzae; geometric mean over strains, read-out: MIC Geometric Mean",1.1 µg/mL
same,MIC,Haemophilus influenzae; [24],2.1 µg/mL
same,MIC,"Haemophilus influenzae; strain 101, read-out: MIC",1 µg/mL
same,MIC,Haemophilus influenzae; strain 102,16 µg/mL
same,MIC,"Haemophilus influenzae; strain 103, read-out: MIC",0.5 µg/mL
same,MIC,"Haemophilus influenzae; strain 105, read-out: MIC",0.5 µg/mL
same,MIC,"Haemophilus influenzae; strain 107, read-out: MIC",1 µg/mL
same,MIC,"Haemophilus influenzae; strain 108, read-out: MIC",2 µg/mL
same,MIC,"Haemophilus influenzae; strain 109, read-out: MIC",1 µg/mL
same,MIC,"Haemophilus influenzae; strain 110, read-out: MIC",0.5 µg/mL
same,MIC,"Haemophilus influenzae; strain 111, read-out: MIC",0.5 µg/mL
same,MIC,"Haemophilus influenzae; strain 112, read-out: MIC",2 µg/mL
same,MIC,"Haemophilus influenzae; strain 113, read-out: MIC",0.5 µg/mL
same,MIC,"Haemophilus influenzae; strain 114, read-out: MIC",2 µg/mL
same,Stability to β-lactamase,[3],25
same,MIC,"Bacteroides fragilis [4]; geometric mean over strains, read-out: MIC Geometric mean",0.7 µg/mL
same,MIC,Bacteroides fragilis [4]; [24],1.2 µg/mL
same,MIC,"Bacteroides fragilis [4]; strain 180-821, read-out: MIC",0.5 µg/mL
same,MIC,"Bacteroides fragilis [4]; strain 10668, read-out: MIC",0.5 µg/mL
same,MIC,"Bacteroides fragilis [4]; strain 10683, read-out: MIC",0.5 µg/mL
same,MIC,"Bacteroides fragilis [4]; strain 10695, read-out: MIC",0.5 µg/mL
same,MIC,"Bacteroides fragilis [4]; strain 10732, read-out: MIC",0.5 µg/mL
same,MIC,"Bacteroides fragilis [4]; strain 10750, read-out: MIC",8 µg/mL
same,MIC,"Bacteroides fragilis [4]; strain 10774, read-out: MIC",1 µg/mL
same,MIC,"Bacteroides fragilis [4]; strain 10817, read-out: MIC",0.5 µg/mL
same,MIC,"Bacteroides fragilis [4]; strain 10837, read-out: MIC",0.5 µg/mL
same,MIC,"Bacteroides fragilis [4]; strain 107266, read-out: MIC",0.5 µg/mL
same,MIC,"Bacteroides fragilis [4]; strain 107268, read-out: MIC",2 µg/mL
same,MIC,"Bacteroides fragilis [4]; strain 108133, read-out: MIC",0.5 µg/mL
same,Stability to β-lactamase,[5],3
same,MIC,Strep. A,0.125 µg/mL
same,potency compared to known antibiotics,bacteria,much more potent than those with which it was compared
same,MIC,Klebsiella; strain KAE,128 µg/mL
same,MIC,Klebsiella; strain X26,2 µg/mL
same,MIC,Klebsiella; strain X68,128 µg/mL
same,Stability to β-lactamase,[6],210
same,MIC,H. influ.; strain 76,0.5 µg/mL
same,MIC,H. influ.; strain C.L.,2 µg/mL
same,MIC,Strep. PN,0.5 µg/mL
same,MIC,H. influenzae; strain 76,1 µg/mL
same,MIC,H. influenzae; strain 105,1 µg/mL
same,MIC,H. influenzae; strain 158,1 µg/mL
same,MIC,H. influenzae; strain 164,1 µg/mL
same,MIC,H. influenzae; strain 169,1 µg/mL
same,MIC,H. influenzae; strain 171,1 µg/mL
same,MIC,H. influenzae; strain 312,1 µg/mL
same,MIC,H. influenzae; strain 1683,0.5 µg/mL
same,MIC,H. influenzae; strain 1930,1 µg/mL
same,MIC,H. influenzae; strain 4842,1 µg/mL
same,MIC,H. influenzae; strain C.L.,2 µg/mL
same,MIC,H. influenzae; strain HESS,1 µg/mL
same,MIC,H. influenzae; strain M366,64 µg/mL
same,MIC,H. influenzae; strain M370,1 µg/mL
same,MIC,H. influenzae; strain M371,1 µg/mL
same,MIC,H. influenzae; strain R465,64 µg/mL
same,MIC,H. influenzae; strain STEL,64 µg/mL
same,MIC,Staph. aureus [7]; strain S224,1 µg/mL
same,MIC,Staph. aureus [7]; strain S225,1 µg/mL
same,MIC,Staph. aureus [7]; strain S226,2 µg/mL
same,MIC,Staph. aureus [7]; strain S227,1 µg/mL
same,MIC,Staph. aureus [7]; strain S228,1 µg/mL
same,MIC,Staph. aureus [7]; strain S229,2 µg/mL
same,MIC,Staph. aureus [7]; strain S230,1 µg/mL
same,MIC,Staph. aureus [7]; strain S231,1 µg/mL
same,MIC,Staph. aureus [7]; strain S234,2 µg/mL
same,MIC,Staph. aureus [7]; strain S237,1 µg/mL
same,MIC,Staph. aureus [7]; strain S238,2 µg/mL
same,MIC,Staph. aureus [7]; strain S239,2 µg/mL
same,Stability to β-lactamase,[8],14
same,MIC,E. coli; strain EC14,32 µg/mL
same,MIC,E. coli; strain N10,128 µg/mL
same,MIC,E. coli; strain TEM,32 µg/mL
same,Stability to β-lactamase,[9],25
"CC1=C(C(=O)O)N2C(=O)C(NC(=O)[C@H](N)c3csc4c(F)cccc34)C2SC1 (stereo partly drawn) [Ex. 20, D-7-(7-Fluoro-3-benzothienyl)glycylamido-3-methyl-3-cephem-4-carboxylic acid]",MIC,Bacteroides fragilis [1]; [13],16 µg/mL
same,MIC,Bacteroides fragilis [1]; [14],64 µg/mL
same,MIC,Bacteroides fragilis [1]; [15],8 µg/mL
same,MIC,Bacteroides fragilis [1]; [16],16 µg/mL
same,MIC,Bacteroides fragilis [1]; [17],32 µg/mL
same,MIC,Bacteroides fragilis [1]; [18],8 µg/mL
same,MIC,Bacteroides fragilis [1]; [19],32 µg/mL
same,MIC,Bacteroides fragilis [1]; [20],128 µg/mL
same,MIC,Bacteroides fragilis [1]; [21],16 µg/mL
same,MIC,[2]; [22],16 µg/mL
same,MIC,[2]; [23],32 µg/mL
same,MIC,Bacteroides corrodens,64 µg/mL
same,MIC,Strep. D,128 µg/mL
same,Agar Dilution MIC,Strep. D; strain 2041,128 µg/mL
same,MIC,Strep. A; strain C203,0.125 µg/mL
same,MIC,Klebsiella,128 µg/mL
same,MIC,Klebsiella; strain X26,4 µg/mL
same,Agar Dilution MIC,Klebsiella; strain X68,128 µg/mL
same,MIC,Staph. epi [10]; strain 222,2 µg/mL
same,MIC,Staph. epi [10]; strain EPI1,4 µg/mL
same,MIC,H. influ.; strain 76,0.5 µg/mL
same,MIC,H. influ.; strain C.L.,4 µg/mL
same,MIC,Strep. PN,0.5 µg/mL
same,MIC,H. influenzae; strain 76,1 µg/mL
same,MIC,H. influenzae; strain 105,2 µg/mL
same,MIC,H. influenzae; strain 158,2 µg/mL
same,MIC,H. influenzae; strain 164,2 µg/mL
same,MIC,H. influenzae; strain 169,4 µg/mL
same,MIC,H. influenzae; strain 171,2 µg/mL
same,MIC,H. influenzae; strain 312,4 µg/mL
same,MIC,H. influenzae; strain 1683,1 µg/mL
same,MIC,H. influenzae; strain 1930,4 µg/mL
same,MIC,H. influenzae; strain 4842,2 µg/mL
same,MIC,H. influenzae; strain C.L.,16 µg/mL
same,MIC,H. influenzae; strain HESS,8 µg/mL
same,MIC,H. influenzae; strain M366,64 µg/mL
same,MIC,H. influenzae; strain M370,2 µg/mL
same,MIC,H. influenzae; strain M371,2 µg/mL
same,MIC,H. influenzae; strain R465,64 µg/mL
same,MIC,H. influenzae; strain STEL,64 µg/mL
same,MIC,Staph. aureus [7]; strain S224,2 µg/mL
same,MIC,Staph. aureus [7]; strain S225,2 µg/mL
same,MIC,Staph. aureus [7]; strain S226,2 µg/mL
same,MIC,Staph. aureus [7]; strain S227,2 µg/mL
same,MIC,Staph. aureus [7]; strain S228,2 µg/mL
same,MIC,Staph. aureus [7]; strain S229,2 µg/mL
same,MIC,Staph. aureus [7]; strain S230,2 µg/mL
same,MIC,Staph. aureus [7]; strain S231,1 µg/mL
same,MIC,Staph. aureus [7]; strain S234,2 µg/mL
same,MIC,Staph. aureus [7]; strain S237,2 µg/mL
same,MIC,Staph. aureus [7]; strain S238,4 µg/mL
same,MIC,Staph. aureus [7]; strain S239,2 µg/mL
same,MIC,Staph. epi [11]; strain 219,2 µg/mL
same,MIC,Staph. epi [11]; strain 269,4 µg/mL
same,MIC,Staph. epi [11]; strain 270,8 µg/mL
same,MIC,Staph. epi [11]; strain 285,4 µg/mL
same,MIC,Staph. epi [11]; strain 286,1 µg/mL
same,MIC,Staph. epi [11]; strain EPI1,16 µg/mL
same,MIC,"Staph. aureus [12]; read-out: Agar Dilution MIC, strain S13E",8 µg/mL
same,MIC,"Staph. aureus [12]; strain V41, read-out: Agar Dilution MIC",16 µg/mL
same,MIC,"Staph. aureus [12]; strain X1.1, read-out: Agar Dilution MIC",0.5 µg/mL
same,MIC,"Staph. aureus [12]; strain X400, read-out: Agar Dilution MIC",128 µg/mL
same,MIC,E. coli; strain EC14,128 µg/mL
same,MIC,E. coli; strain N10,128 µg/mL
same,MIC,E. coli; strain TEM,128 µg/mL
